Values of other authors, collected in paper PMC7587962, “Evaluation of Cytotoxicity and α-Glucosidase Inhibitory Activity of Amide and Polyamino-Derivatives of Lupane Triterpenoids” (Molecules, 2020).

Assays:
Parameters in all cases: method as in PMID 25405285
[1] = tested on: CCRF-CEM; details: standard drugs used by NCI as control; cited from earlier work
[2] = tested on: MOLT-4; details: standard drugs used by NCI as control; cited from earlier work
[3] = tested on: EKVX; details: standard drugs used by NCI as control; cited from earlier work
[4] = tested on: NCI-H226; details: standard drugs used by NCI as control; cited from earlier work
[5] = tested on: NCI-H23; details: standard drugs used by NCI as control; cited from earlier work
[6] = tested on: NCI-H460; details: standard drugs used by NCI as control; cited from earlier work
[7] = tested on: COLO 205; details: standard drugs used by NCI as control; cited from earlier work
[8] = tested on: HCC-2998; details: standard drugs used by NCI as control; cited from earlier work
[9] = tested on: HCT-116; details: standard drugs used by NCI as control; cited from earlier work
[10] = tested on: HCT-15; details: standard drugs used by NCI as control; cited from earlier work
[11] = tested on: KM12; details: standard drugs used by NCI as control; cited from earlier work
[12] = tested on: SW-620; details: standard drugs used by NCI as control; cited from earlier work
[13] = tested on: SF-295; details: standard drugs used by NCI as control; cited from earlier work
[14] = tested on: SF-539; details: standard drugs used by NCI as control; cited from earlier work
[15] = tested on: SNB-75; details: standard drugs used by NCI as control; cited from earlier work
[16] = tested on: MALME-3M; details: standard drugs used by NCI as control; cited from earlier work
[17] = tested on: M14; details: standard drugs used by NCI as control; cited from earlier work
[18] = tested on: SK-MEL-2; details: standard drugs used by NCI as control; cited from earlier work
[19] = tested on: UACC-62; details: standard drugs used by NCI as control; cited from earlier work
[20] = tested on: IGROV1; details: standard drugs used by NCI as control; cited from earlier work
[21] = tested on: OVCAR-3; details: standard drugs used by NCI as control; cited from earlier work
[22] = tested on: OVCAR-8; details: standard drugs used by NCI as control; cited from earlier work
[23] = tested on: NCI/ADR-RES; details: standard drugs used by NCI as control; cited from earlier work
[24] = tested on: SK-OV-3; details: standard drugs used by NCI as control; cited from earlier work
[25] = tested on: 786-0; details: standard drugs used by NCI as control; cited from earlier work
[26] = tested on: A498; details: standard drugs used by NCI as control; cited from earlier work
[27] = tested on: ACHN; details: standard drugs used by NCI as control; cited from earlier work
[28] = tested on: SN12C; details: standard drugs used by NCI as control; cited from earlier work
[29] = tested on: MCF7; details: standard drugs used by NCI as control; cited from earlier work
[30] = tested on: MDA-MB-231/ATCC; details: MDA-MB-31/ATCC; standard drugs used by NCI as control; cited from earlier work
[31] = tested on: HS 578T; details: standard drugs used by NCI as control; cited from earlier work

Q: With `COc1cccc2c1C(=O)c1c(O)c3c(c(O)c1C2=O)C[C@@](O)(C(=O)CO)C[C@@H]3O[C@H]1C[C@H](N)[C@H](O)[C@H](C)O1` [DRB, doxorubicin] as the compound, how does the GI50 [1] read?
A: 80 nM

Q: What about the GI50 [2] of the same compound?
A: 30 nM

Q: What about the GI50 [3] of the same compound?
A: 410 nM

Q: And the GI50 [4]?
A: 50 nM

Q: And the GI50 [5]?
A: 150 nM

Q: And the GI50 [6]?
A: 20 nM

Q: And the GI50 [7]?
A: 180 nM

Q: What about the GI50 [8] of the same compound?
A: 260 nM

Q: What about the GI50 [9] of the same compound?
A: 80 nM

Q: What about the GI50 [10] of the same compound?
A: 6460 nM

Q: What about the GI50 [11] of the same compound?
A: 270 nM

Q: And the GI50 [12]?
A: 90 nM

Q: And the GI50 [13]?
A: 100 nM

Q: What about the GI50 [14] of the same compound?
A: 120 nM

Q: And the GI50 [15]?
A: 70 nM

Q: And the GI50 [16]?
A: 120 nM

Q: And the GI50 [17]?
A: 180 nM

Q: And the GI50 [18]?
A: 170 nM

Q: What about the GI50 [19] of the same compound?
A: 120 nM

Q: And the GI50 [20]?
A: 170 nM

Q: What about the GI50 [21] of the same compound?
A: 390 nM

Q: And the GI50 [22]?
A: 100 nM

Q: What about the GI50 [23] of the same compound?
A: 7160 nM

Q: And the GI50 [24]?
A: 220 nM

Q: And the GI50 [25]?
A: 130 nM

Q: What about the GI50 [26] of the same compound?
A: 100 nM

Q: And the GI50 [27]?
A: 80 nM

Q: And the GI50 [28]?
A: 70 nM

Q: And the GI50 [29]?
A: 30 nM

Q: What about the GI50 [30] of the same compound?
A: 510 nM

Q: And the GI50 [31]?
A: 330 nM
